According to article PMC11626117 (Proceedings of the National Academy of Sciences of the …, 2024):

What was measured:
CoaA [1] = target: T1, CoaA (Mycobacterium tuberculosis, UniProt P9WPA7)
CoaA [2] = target: T1, CoaA; test: ADP-Glo luminescent kinase assay; assay type: biochemical; conditions: 5 mM ATP, 50 mM HEPES, 25 mM KCl, 20 mM MgCl2, 30 min

T1 sequence (P9WPA7 whole entry, looked up): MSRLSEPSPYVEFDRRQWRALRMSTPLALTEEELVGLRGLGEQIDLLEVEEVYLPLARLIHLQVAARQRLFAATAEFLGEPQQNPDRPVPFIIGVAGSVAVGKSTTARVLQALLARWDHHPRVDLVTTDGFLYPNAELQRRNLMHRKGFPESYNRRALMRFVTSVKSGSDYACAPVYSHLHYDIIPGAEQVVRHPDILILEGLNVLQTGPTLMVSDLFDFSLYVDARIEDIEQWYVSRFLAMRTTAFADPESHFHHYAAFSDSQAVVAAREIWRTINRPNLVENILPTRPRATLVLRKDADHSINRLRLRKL

| Compound | ADP-Glo luminescent kinase assay (CoaA [1]) | Michaelis-Menten curve, constant not given (CoaA [2]) |
| --- | --- | --- |
| Nc1ncnc2c1ncn2[C@@H]1O[C@H](COP(=O)(O)OP(=O)(O)OP(=O)(O)O)[C@@H](O)[C@H]1O [ATP] | CoaA showed robust ATPase activity |  |
| CC(C)(CO)[C@@H](O)C(=O)NCCC(=O)O [pantothenate] |  | CoaA showed robust ATPase activity |
